Where two headings read alike, the source gives them in different places.
Key:
adjuvant inflammation = experiment: Effect of lowering local surface temperature at inflammation (adjuvant inflammation, butter bacillus, hind foot); assay type: in vivo, male Fisher rat; conditions: Rattus norvegicus, 6 h, read-out: Dose (mg/kg) required for lowering local temperature at inflammatory site by at least 2° C.
Protocol: 0.05 ml of a suspension of butter bacillus in liquid paraffin (10 mg/ml) was injected into the sole of the right hind foot of a male Fisher rat aged six weeks to thereby induce adjuvant inflammation. After three to five days, the surface temperature of the inflammatory foot was constantly higher by 8° to 10° C. than that of a normal foot. The test compounds as described hereinbelow and control compounds (i.e. indomethacin and pyroxycam) were each suspended in a 5% aqueous solution of gum arabic and orally administered to the rat in a dose of 5 ml/kg body weight. The local surface temperature of the inflammatory site was determined after two, four and six hours according to the method of H. Shirota et al. (cf. J. Pharmacol. Methods, 12, 35-43 (1984)). The dose required for lowering the surface temperature by at least 2° C. below that prior to the administration was calculated by averaging data of two animals, thus determining the anti-inflammatory titer of each test compound.

[1] = Effect of inducing gastric ulcer; assay type: in vivo, male Fisher rat; conditions: rat, oral, fasted 24 hours, after six hours, read-out: UD50 (50% ulcer inducing dose)
Protocol: A male Fisher rat aged seven weeks was kept fasting for 24 hours and then each test compound suspended in a 5% aqueous solution of gum arabic was orally administered thereto.

[2] = tested on: carrageenan edema at foot-sole; experiment: Effect of suppressing carrageenan edema at foot-sole; assay type: in vivo, Male Fisher rats; conditions: 10 mg/kg, one hour before carrageenan; volume measured three hours after carrageenan injection; groups of five animals
Protocol: Male Fisher rats aged five weeks were classified into groups each having five animals. Each test compound was suspended in a 5% aqueous solution of gum arabic and administered to each rat in a dose of […] body weight. After one hour, a 1% carrageenan solution was injected into the sole of the right hind foot of the animal to thereby induce inflammation. Three hours after the carrageenan injection, the volume of the sole of each hind foot of the animal was measured to calculate the volume-gain of the foot-sole to which carrageenan was injected. The obtained data was compared with those of the control groups, thus determining the suppression ratio of the test compound. The same test compounds as used in Pharmacological Example 1 were used.

[3] = Acute Toxicity Test, mice; assay type: in vivo; conditions: mouse, in vivo
Protocol: (§1) LD 50 of the compound B, falling within the scope of the invention, was investigated in respect to acute toxicity, using rats and mice.
(§2) *Values were calculated according to BehrensKarber method. The oral
(§3) administration was conducted after a fasting treatment for 17 to 24 hours

mice = experiment: Acute Toxicity Test, mice; assay type: in vivo; conditions: oral, male mice, after fasting 17 to 24 hours
Protocol: as §1, §2, §3

[4] = Acute Toxicity Test, rats; conditions: rat, in vivo
Protocol: as §1, §2, §3

[5] = oral, suspended in 5% gum arabic, temperature after two, four and six hours, averaging data of two animals

`CN1C(C(=O)Nc2ccccn2)=C(O)c2ccccc2S1(=O)=O` [Piroxicam, reference compound] gave a minimal effective dose (adjuvant inflammation; [5]) of 0.3 mg/kg and a TD50 at 6 h ([1]; in vivo) of 23.1 mg/kg.
For `CON1CCC(=Cc2cc(C(C)(C)C)c(O)c(C(C)(C)C)c2)C1=O` [Compound B, N-methoxy-3-(3,5-di-tert-butyl-4-hydroxybenzylidene)-2-pyrrolidone], the minimal effective dose (adjuvant inflammation; po) was 0.3 mg/kg, the Suppression ratio [2] was 36.4 and the TD50 at 6 h ([1]; in vivo) was 473 mg/kg. The LD50 ([3]; ip, abdominal, female mice, confidence range 443.9~1549.3) was 805 mg/kg, the LD50 ([3]; ip, abdominal, male mice, confidence range 523~2270) was 1070 mg/kg and the LD50 ([3]; po, female mice, after fasting 17 to 24 hours) was 6870 mg/kg. For the same molecule, the LD50 ([3]; sc, hypodermic, female mice) was greater than 4000 mg/kg, the LD50 ([3]; sc, hypodermic, male mice) was greater than 4000 mg/kg and the LD50 (mice) was 4000~2000. It also gave an LD50 ([4]; ip, abdominal, female rats, calculated according to Behrens-Karber method (*)) of 46.9 mg/kg, an LD50 ([4]; ip, abdominal, male rats, calculated according to Behrens-Karber method (*)) of 96.7 mg/kg and an LD50 ([4]; po, female rats, after fasting 17 to 24 hours, calculated according to Behrens-Karber method (*)) of 161 mg/kg. It also gave an LD50 ([4]; po, male rats, after fasting 17 to 24 hours) of 354 mg/kg, an LD50 ([4]; sc, hypodermic, female rats, confidence range 124~476) of 291 mg/kg and an LD50 ([4]; sc, hypodermic, male rats, calculated according to Behrens-Karber method (*)) of 806 mg/kg.
In the case of `CN1CCC(=Cc2cc(C(C)(C)C)c(O)c(C(C)(C)C)c2)C1=O` [Compound A, N-methyl-3-(3,5-di-tert-butyl-4-hydroxybenzylidene)-2-pyrrolidone], the minimal effective dose (adjuvant inflammation; [5]) is reported as 1 mg/kg and the Suppression ratio [2] is reported as 36.1.
With `CC(C)(C)c1cc(C=C2CCNC2=O)cc(C(C)(C)C)c1O` [Compound C, 3-(3,5-di-tert-butyl-4-hydroxybenzylidene)-2-pyrrolidone] the minimal effective dose (adjuvant inflammation; [5]) was 0.3 mg/kg, the Suppression ratio [2] was 38.5 and the TD50 at 6 h ([1]; stomach) was 75.8 mg/kg.
With `COc1ccc2c(c1)c(CC(=O)O)c(C)n2C(=O)c1ccc(Cl)cc1` [Indomethacin, indomethacin, reference compound] the minimal effective dose (adjuvant inflammation; po) was 0.3 mg/kg, the Suppression ratio [2] was 37.7 and the TD50 at 6 h ([1]; in vivo) was 7.8 mg/kg.
